# Experimental data taken from PubChem BioAssay AID196 (DTP/NCI, 2004).
# Where “and” joins values, the source holds several entries; their conditions need not be identical. Identical values can stand only once. Inconclusive results and toxic doses are left out.
# System: BDF1 mice, intracerebral B16 melanoma, median survival T/C
# Experiment: NCI In Vivo Anticancer Drug Screen. Data for tumor model B16 Melanoma (intracerebral) in B6D2F1 (BDF1) mice
# Conditions: endpoint: median survival time, higher = longer survival
# Experimental: The antitumor activity of compounds was measured in mice bearing transplantable tumors. Survival or tumor size were measured and the results are expressed as the measurement made in the treated group (T) divided by the measurement made in the vehicle treated control group (C). The tumor model used in this assay is B16 Melanoma (intracerebral) in B6D2F1 (BDF1) mice
# [1] = dose: 26.7 mg/kg/injection, schedule: Q01DX001 (ip), vehicle: Klucel (hydroxypropylcellulose) (HPC)
# [2] = dose: 40.0 mg/kg/injection, schedule: Q01DX001 (ip), vehicle: Klucel (hydroxypropylcellulose) (HPC)
# [3] = dose: 60.0 mg/kg/injection, schedule: Q01DX001 (ip), vehicle: Klucel (hydroxypropylcellulose) (HPC)
# [4] = dose: 13.0 mg/kg/injection, schedule: Q01DX001 (ip), vehicle: saline
# [5] = dose: 21.6 mg/kg/injection, schedule: Q01DX001 (ip), vehicle: saline
# [6] = dose: 128.0 mg/kg/injection, schedule: Q01DX005 (ip), vehicle: saline
# [7] = dose: 6.25 mg/kg/injection, schedule: Q01DX009 (ip), vehicle: other
# [8] = dose: 12.5 mg/kg/injection, schedule: Q01DX009 (ip), vehicle: other
# [9] = dose: 25.0 mg/kg/injection, schedule: Q01DX009 (ip), vehicle: other
# [10] = dose: 50.0 mg/kg/injection, schedule: Q01DX009 (ip), vehicle: other
# [11] = dose: 16.0 mg/kg/injection, schedule: Q01DX005 (ip), vehicle: saline with Tween-80
# [12] = dose: 32.0 mg/kg/injection, schedule: Q01DX005 (ip), vehicle: saline with Tween-80
# [13] = dose: 64.0 mg/kg/injection, schedule: Q01DX005 (ip), vehicle: saline with Tween-80
# [14] = dose: 128.0 mg/kg/injection, schedule: Q01DX005 (ip), vehicle: saline with Tween-80
# [15] = dose: 2.0 mg/kg/injection, schedule: Q01DX009 (ip), vehicle: water
# [16] = dose: 4.0 mg/kg/injection, schedule: Q01DX009 (ip), vehicle: saline
smiles,measurement,setting,value
CCCCCC(=O)O[C@]1(C(C)=O)CC[C@H]2[C@@H]3CCC4=CC(=O)CC[C@]4(C)[C@H]3CC[C@@]21C,T/C,"dose: 8.0 mg/kg/injection, schedule: Q01DX009 (ip), vehicle: Klucel (hydroxypropylcellulose) (HPC)",100 % of control
same,T/C,"dose: 16.0 mg/kg/injection, schedule: Q01DX009 (ip), vehicle: Klucel (hydroxypropylcellulose) (HPC)",101 % of control
same,T/C,"dose: 32.0 mg/kg/injection, schedule: Q01DX009 (ip), vehicle: Klucel (hydroxypropylcellulose) (HPC)",100 % of control
same,T/C,"dose: 64.0 mg/kg/injection, schedule: Q01DX009 (ip), vehicle: Klucel (hydroxypropylcellulose) (HPC)",100 % of control
same,T/C,"dose: 128.0 mg/kg/injection, schedule: Q01DX009 (ip), vehicle: Klucel (hydroxypropylcellulose) (HPC)",98 % of control
same,T/C,"dose: 256.0 mg/kg/injection, schedule: Q01DX009 (ip), vehicle: Klucel (hydroxypropylcellulose) (HPC)",94 % of control
same,T/C,"dose: 512.0 mg/kg/injection, schedule: Q01DX009 (ip), vehicle: Klucel (hydroxypropylcellulose) (HPC)",101 % of control
O=NN(CCF)C(=O)N[C@H]1CCCC[C@H]1O,T/C,[1],151 % of control
same,T/C,[2],155 % of control
same,T/C,[3],330 % of control
NC(CSC(c1ccccc1)(c1ccccc1)c1ccccc1)C(=O)O (stereo not drawn),T/C,"dose: 32.0 mg/kg/injection, schedule: Q01DX005 (ip), vehicle: Klucel (hydroxypropylcellulose) (HPC)",105 % of control and 115 % of control
same,T/C,"dose: 64.0 mg/kg/injection, schedule: Q01DX005 (ip), vehicle: Klucel (hydroxypropylcellulose) (HPC)",105 % of control and 112 % of control
same,T/C,"dose: 128.0 mg/kg/injection, schedule: Q01DX005 (ip), vehicle: Klucel (hydroxypropylcellulose) (HPC)",117 % of control and 119 % of control
same,T/C,"dose: 256.0 mg/kg/injection, schedule: Q01DX005 (ip), vehicle: Klucel (hydroxypropylcellulose) (HPC)",124 % of control and 107 % of control
O=NN(CCF)C(=O)NCCO,T/C,[4],169 % of control
same,T/C,[5],209 % of control
same,T/C,[1],90 % of control
same,T/C,"dose: 36.0 mg/kg/injection, schedule: Q01DX001 (ip), vehicle: saline",392 % of control
same,T/C,[2],338 % of control
same,T/C,[3],220 % of control
Nc1nc2c(c(=O)[nH]1)N(C=O)C(CNc1ccc(C(=O)N[C@@H](CCC(=O)O)C(=O)O)cc1)CN2 (stereo partly drawn),T/C,[6],102 % of control
same,T/C,"dose: 256.0 mg/kg/injection, schedule: Q01DX005 (ip), vehicle: saline",95 % of control
same,T/C,"dose: 512.0 mg/kg/injection, schedule: Q01DX005 (ip), vehicle: saline",87 % of control
CN(C)N=Nc1ccc2c(c1)N(C)c1ccc(F)cc1S2,T/C,[7],90 % of control
same,T/C,[8],105 % of control
same,T/C,[9],112 % of control
same,T/C,[10],105 % of control
same,T/C,"dose: 100.0 mg/kg/injection, schedule: Q01DX009 (ip), vehicle: other",112 % of control
C[C@@H]1C[C@H]2[C@@H]3CCC4=CC(=O)C=C[C@]4(C)[C@@]3(F)[C@@H](O)C[C@]2(C)[C@@]1(O)C(=O)CO,T/C,"dose: 0.75 mg/kg/injection, schedule: Q01DX009 (ip), vehicle: saline",108 % of control
same,T/C,"dose: 1.5 mg/kg/injection, schedule: Q01DX009 (ip), vehicle: saline",104 % of control
same,T/C,"dose: 3.0 mg/kg/injection, schedule: Q01DX009 (ip), vehicle: saline",118 % of control and 104 % of control
same,T/C,"dose: 6.0 mg/kg/injection, schedule: Q01DX009 (ip), vehicle: saline",104 % of control and 112 % of control
same,T/C,"dose: 12.0 mg/kg/injection, schedule: Q01DX009 (ip), vehicle: saline",122 % of control
CC[C@H]1CN2CCc3cc(OC)c(OC)cc3[C@@H]2C[C@@H]1C[C@H]1NCCc2cc(OC)c(OC)cc21,T/C,"dose: 2.0 mg/kg/injection, schedule: Q01DX005 (ip), vehicle: Klucel (hydroxypropylcellulose) (HPC)",100 % of control and 104 % of control
same,T/C,"dose: 4.0 mg/kg/injection, schedule: Q01DX005 (ip), vehicle: Klucel (hydroxypropylcellulose) (HPC)",90 % of control and 110 % of control
same,T/C,"dose: 8.0 mg/kg/injection, schedule: Q01DX005 (ip), vehicle: Klucel (hydroxypropylcellulose) (HPC)",86 % of control and 112 % of control
C#CCN(C)/N=N/c1nc[nH]c1C(N)=O,T/C,[11],107 % of control
same,T/C,[12],104 % of control
same,T/C,[13],110 % of control
same,T/C,[14],109 % of control
same,T/C,"dose: 256.0 mg/kg/injection, schedule: Q01DX005 (ip), vehicle: saline with Tween-80",100 % of control
C[n+]1c2ccccc2nc2c(N)cc(N)cc21,T/C,"dose: 4.0 mg/kg/injection, schedule: Q01DX005 (ip), vehicle: suspension in saline",93 % of control
same,T/C,"dose: 8.0 mg/kg/injection, schedule: Q01DX005 (ip), vehicle: suspension in saline",92 % of control and 98 % of control
same,T/C,"dose: 16.0 mg/kg/injection, schedule: Q01DX005 (ip), vehicle: suspension in saline",100 % of control and 103 % of control
same,T/C,"dose: 32.0 mg/kg/injection, schedule: Q01DX005 (ip), vehicle: suspension in saline",93 % of control and 97 % of control
NC(Cc1ccc(N(CCCl)CCCl)cc1)C(=O)O (stereo not drawn),T/C,[15],120 % of control
O=[N+]([O-])O.[Ga],T/C,"dose: 32.0 mg/kg/injection, schedule: Q01DX005 (ip), vehicle: saline",112 % of control
same,T/C,"dose: 64.0 mg/kg/injection, schedule: Q01DX005 (ip), vehicle: saline",93 % of control and 112 % of control
same,T/C,[6],103 % of control
Cc1c(N)nc([C@H](CC(N)=O)NC[C@H](N)C(N)=O)nc1C(=O)N[C@H](C(=O)N[C@H](C)[C@@H](O)[C@H](C)C(=O)N[C@H](C(=O)NCCc1nc(-c2nc(C(=O)NCCC[S+](C)C)cs2)cs1)[C@@H](C)O)C(OC1OC(CO)C(O)C(O)C1OC1OC(CO)C(O)C(OC(N)=O)C1O)c1cnc[nH]1 (stereo partly drawn),T/C,[16],110 % of control
same,T/C,"dose: 8.0 mg/kg/injection, schedule: Q01DX009 (ip), vehicle: saline",120 % of control
same,T/C,"dose: 16.0 mg/kg/injection, schedule: Q01DX009 (ip), vehicle: saline",106 % of control
COc1cc([C@@H]2c3cc4c(cc3[C@@H](OC3OC5CO[C@@H](c6cccs6)OC5C(O)C3O)[C@H]3COC(=O)[C@H]23)OCO4)cc(OC)c1O (stereo partly drawn),T/C,"dose: 0.25 mg/kg/injection, schedule: Q01DX009 (ip), vehicle: saline",96 % of control
same,T/C,"dose: 0.5 mg/kg/injection, schedule: Q01DX009 (ip), vehicle: saline",107 % of control
same,T/C,"dose: 0.5 mg/kg/injection, schedule: Q01DX009 (ip), vehicle: water",91 % of control
same,T/C,"dose: 1.0 mg/kg/injection, schedule: Q01DX009 (ip), vehicle: saline",95 % of control and 100 % of control
same,T/C,"dose: 1.0 mg/kg/injection, schedule: Q01DX009 (ip), vehicle: water",104 % of control
same,T/C,"dose: 2.0 mg/kg/injection, schedule: Q01DX009 (ip), vehicle: saline",100 % of control and 108 % of control
same,T/C,[15],95 % of control
same,T/C,[16],104 % of control
CN(C)N=Nc1ccnc2c(Cl)cccc12,T/C,"dose: 3.12 mg/kg/injection, schedule: Q01DX009 (ip), vehicle: other",110 % of control
same,T/C,[7],116 % of control
same,T/C,[8],110 % of control
same,T/C,[9],108 % of control
same,T/C,[10],112 % of control
O=NN(CCF)C(=O)NC1C(O)CCCC1O (stereo not drawn),T/C,[4],115 % of control
same,T/C,"dose: 17.8 mg/kg/injection, schedule: Q01DX001 (ip), vehicle: Klucel (hydroxypropylcellulose) (HPC)",120 % of control
same,T/C,[5],111 % of control
same,T/C,[2],160 % of control
same,T/C,[3],171 % of control
same,T/C,"dose: 60.0 mg/kg/injection, schedule: Q01DX001 (ip), vehicle: saline",189 % of control
CCC(C)N(C)/N=N/c1nc[nH]c1C(N)=O (stereo not drawn),T/C,[11],102 % of control
same,T/C,[12],106 % of control
same,T/C,[13],112 % of control
same,T/C,[14],107 % of control
CC[n+]1c(-c2ccccc2)c2cc(N)ccc2c2ccc(N)cc21,T/C,"dose: 6.0 mg/kg/injection, schedule: Q01DX005 (ip), vehicle: saline",95 % of control
same,T/C,"dose: 12.0 mg/kg/injection, schedule: Q01DX005 (ip), vehicle: saline",104 % of control and 105 % of control and 109 % of control
same,T/C,"dose: 24.0 mg/kg/injection, schedule: Q01DX005 (ip), vehicle: saline",105 % of control
